Data from patent US20230111310A1, “CARBOXYLIC ACID DERIVATIVE-SUBSTITUTED IMINO ARYL COMPOUND, PREPARATION METHOD THEREFOR, HERBICIDAL COMPOSITION AND USE THEREOF” (Qingdao Kingagroot Chemical Compound Co., Ltd., priority 2020, published 2023).

Columns and labels:
Assay in all cases: Weeding effect in post-emergence stage
Type in all cases: in vivo
[1] = system: Abutilon theophrasti; conditions: for Weeding effect in post-emergence stage, Abutilon theophrasti (level): fresh weight control rate level
Summary of the method: (§1)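 Compound, dissolved in acetone and diluted in water with Tween 80 plus methyl oleate EC (1.5 liter/ha), is sprayed onto 2-3 leaf potted plants. Rates span 7.5–500 g/ha. After 3 weeks of greenhouse culture, weeding effect is counted as the mean of triplicates.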

[2] = system: Alopecurus japonicus; conditions: for Weeding effect in post-emergence stage, Alopecurus japonicus (level): fresh weight control rate level
Summary of the method: as §1

[3] = system: Setaria viridis; conditions: for Weeding effect in post-emergence stage, Setaria viridis (level): fresh weight control rate level
Summary of the method: as §1

[4] = system: Eleusine indica; conditions: for Weeding effect in post-emergence stage, Eleusine indica (level): fresh weight control rate level
Summary of the method: as §1

[5] = system: Digitaria sanguinalis; conditions: for Weeding effect in post-emergence stage, Digitaria sanguinalis (level): fresh weight control rate level
Summary of the method: as §1

[6] = system: Echinochloa crusgalli; conditions: for Weeding effect in post-emergence stage, Echinochloa crusgalli (level): fresh weight control rate level
Summary of the method: as §1

[7] = Dose 15 g/ha, level of fresh weight growth control rate

Q: Which “Weeding effect in post-emergence stage, Abutilon theophrasti (level)” value (“Weeding effect … Abutilon theophrasti (level)” below) ([1]; Dose 15 g/ha) does the source give for `C=C(Cl)COC(=O)[C@@H](C)O/N=C/c1cc(-n2c(=O)cc(C(F)(F)F)n(C)c2=O)c(F)cc1Cl` [501(R)] here?
A: 5 (Level 5: growth control rate is above 85%)

Q: What about the “Weeding effect in post-emergence stage, Alopecurus japonicus (level)” value (shortened to “Weeding effect … Alopecurus japonicus (level)”) ([2]; Dose 15 g/ha) of the same molecule?
A: 5 (Level 5: growth control rate is above 85%)

Q: And the “Weeding effect in post-emergence stage, Setaria viridis (level)” value (“Weeding effect … Setaria viridis (level)” for short) ([3]; Dose 15 g/ha)?
A: 5 (Level 5: growth control rate is above 85%)

Q: And the “Weeding effect in post-emergence stage, Eleusine indica (level)” value (shortened to “Weeding effect … Eleusine indica (level)”) ([4]; Dose 15 g/ha)?
A: 5 (Level 5: growth control rate is above 85%)

Q: And the “Weeding effect in post-emergence stage, Digitaria sanguinalis (level)” value (“Weeding effect … Digitaria sanguinalis (level)” below) ([5]; Dose 15 g/ha)?
A: 5 (Level 5: growth control rate is above 85%)

Q: And the “Weeding effect in post-emergence stage, Echinochloa crusgalli (level)” value (“Weeding effect … Echinochloa crusgalli (level)” below) ([6]; Dose 15 g/ha)?
A: 5 (Level 5: growth control rate is above 85%)

Q: Which “Weeding effect … Abutilon theophrasti (level)” value ([1]; Dose 30 g/ha) does the source give for `Cc1cc(C)n(C(=O)C(C)O/N=C/c2cc(-n3c(=O)cc(C(F)(F)F)n(C)c3=O)c(F)cc2Cl)n1` (stereo not drawn) [Compound 424] here?
A: 5 (Level 5: growth control rate is above 85%)

Q: What about the “Weeding effect … Alopecurus japonicus (level)” value ([2]; Dose 30 g/ha) of the same molecule?
A: 5 (Level 5: growth control rate is above 85%)

Q: What about the “Weeding effect … Setaria viridis (level)” value ([3]; Dose 30 g/ha) of the same molecule?
A: 5 (Level 5: growth control rate is above 85%)

Q: What about the “Weeding effect … Eleusine indica (level)” value ([4]; Dose 30 g/ha) of the same molecule?
A: 5 (Level 5: growth control rate is above 85%)

Q: And the “Weeding effect … Digitaria sanguinalis (level)” value ([5]; Dose 30 g/ha)?
A: 5 (Level 5: growth control rate is above 85%)

Q: What about the “Weeding effect … Echinochloa crusgalli (level)” value ([6]; Dose 30 g/ha) of the same molecule?
A: 5 (Level 5: growth control rate is above 85%)

Q: Which “Weeding effect in post-emergence stage, Abutilon theophrasti” value [1, 7] does the source give for `CC(O/N=C/c1cc(-n2c(=O)cc(C(F)(F)F)n(C)c2=O)c(F)cc1Cl)C(=O)OC1CCCC1` (racemic) [Compound 214] here?
A: 5 (Level 5: growth control rate is above 85%)

Q: And the “Weeding effect in post-emergence stage, Alopecurus japonicus” value [2, 7]?
A: 5 (Level 5: growth control rate is above 85%)

Q: What about the “Weeding effect in post-emergence stage, Setaria viridis” value [3, 7] of the same molecule?
A: 5 (Level 5: growth control rate is above 85%)

Q: What about the “Weeding effect in post-emergence stage, Eleusine indica” value [4, 7] of the same molecule?
A: 5 (Level 5: growth control rate is above 85%)

Q: And the “Weeding effect in post-emergence stage, Digitaria sanguinalis” value [5, 7]?
A: 5 (Level 5: growth control rate is above 85%)

Q: And the “Weeding effect in post-emergence stage, Echinochloa crusgalli” value [6, 7]?
A: 5 (Level 5: growth control rate is above 85%)

Q: What does the source list for `C[C@@H](O/N=C/c1cc(-n2c(=O)cc(C(F)(F)F)n(C)c2=O)c(F)cc1Cl)C(=O)NS(=O)(=O)CCl` [503(R)]?
A: Weeding effect in post-emergence stage, Abutilon theophrasti (level) ([1]; Dose 15 g/ha): 5 (Level 5: growth control rate is above 85%); Weeding effect in post-emergence stage, Alopecurus japonicus (level) ([2]; Dose 15 g/ha): 5 (Level 5: growth control rate is above 85%); Weeding effect in post-emergence stage, Setaria viridis (level) ([3]; Dose 15 g/ha): 5 (Level 5: growth control rate is above 85%); Weeding effect in post-emergence stage, Eleusine indica (level) ([4]; Dose 15 g/ha): 5 (Level 5: growth control rate is above 85%); Weeding effect in post-emergence stage, Digitaria sanguinalis (level) ([5]; Dose 15 g/ha): 5 (Level 5: growth control rate is above 85%); Weeding effect in post-emergence stage, Echinochloa crusgalli (level) ([6]; Dose 15 g/ha): 5 (Level 5: growth control rate is above 85%)

Q: With `CC(O/N=C/c1cc(-n2c(=O)cc(C(F)(F)F)n(C)c2=O)c(F)cc1Cl)C(=O)OCc1ccc(Cl)nc1` (stereo not drawn) [Compound 495] as the molecule, how does the “Weeding effect … Abutilon theophrasti (level)” value ([1]; Dose 15 g/ha) read?
A: 5 (Level 5: growth control rate is above 85%)

Q: What about the “Weeding effect … Alopecurus japonicus (level)” value ([2]; Dose 15 g/ha) of the same molecule?
A: 5 (Level 5: growth control rate is above 85%)

Q: And the “Weeding effect … Setaria viridis (level)” value ([3]; Dose 15 g/ha)?
A: 5 (Level 5: growth control rate is above 85%)

Q: And the “Weeding effect … Eleusine indica (level)” value ([4]; Dose 15 g/ha)?
A: 5 (Level 5: growth control rate is above 85%)

Q: What about the “Weeding effect … Digitaria sanguinalis (level)” value ([5]; Dose 15 g/ha) of the same molecule?
A: 5 (Level 5: growth control rate is above 85%)

Q: And the “Weeding effect … Echinochloa crusgalli (level)” value ([6]; Dose 15 g/ha)?
A: 5 (Level 5: growth control rate is above 85%)

Q: How did the “Weeding effect … Abutilon theophrasti (level)” value ([1]; Dose 60 g/ha) turn out when `C[C@@H](O/N=C/c1cc(-n2c(=O)cc(C(F)(F)F)n(C)c2=O)c(F)cc1Cl)C(=O)N1CCOCC1` [454(R)] was run?
A: 5 (Level 5: growth control rate is above 85%)

Q: What about the “Weeding effect … Alopecurus japonicus (level)” value ([2]; Dose 60 g/ha) of the same molecule?
A: 5 (Level 5: growth control rate is above 85%)

Q: What about the “Weeding effect … Setaria viridis (level)” value ([3]; Dose 60 g/ha) of the same molecule?
A: 5 (Level 5: growth control rate is above 85%)

Q: And the “Weeding effect … Eleusine indica (level)” value ([4]; Dose 60 g/ha)?
A: 5 (Level 5: growth control rate is above 85%)

Q: And the “Weeding effect … Digitaria sanguinalis (level)” value ([5]; Dose 60 g/ha)?
A: 5 (Level 5: growth control rate is above 85%)

Q: And the “Weeding effect … Echinochloa crusgalli (level)” value ([6]; Dose 60 g/ha)?
A: 5 (Level 5: growth control rate is above 85%)

Q: `COC(=O)C(C)O/N=C/c1cc(-n2c(=O)cc(C(F)(F)F)n(C)c2=S)c(F)cc1C#N` (racemic) [Compound 396] was tested. Which “Weeding effect … Abutilon theophrasti (level)” value ([1]; Dose 60 g/ha) did it give?
A: 5 (Level 5: growth control rate is above 85%)

Q: And the “Weeding effect … Alopecurus japonicus (level)” value ([2]; Dose 60 g/ha)?
A: 5 (Level 5: growth control rate is above 85%)

Q: And the “Weeding effect … Setaria viridis (level)” value ([3]; Dose 60 g/ha)?
A: 5 (Level 5: growth control rate is above 85%)

Q: And the “Weeding effect … Eleusine indica (level)” value ([4]; Dose 60 g/ha)?
A: 5 (Level 5: growth control rate is above 85%)

Q: And the “Weeding effect … Digitaria sanguinalis (level)” value ([5]; Dose 60 g/ha)?
A: 5 (Level 5: growth control rate is above 85%)

Q: And the “Weeding effect … Echinochloa crusgalli (level)” value ([6]; Dose 60 g/ha)?
A: 5 (Level 5: growth control rate is above 85%)
